From patent publication US8003785B2 (Takeda Pharmaceutical Company Limited, priority 2008, dated 2011)

What follows are compounds tested against T1, PLK1 (Homo sapiens, UniProt P53350) (assay: Biochemical Characterization Assay: HTRF kinase assay, GST-PLK1 phosphorylation of GST-p53). Conditions: GST-PLK1, GST-p53 substrate.
T1 construct: Full-length, active GST-PLK1 is purified from Sf9 insect cells; made in house; host or cells: Sf9 insect cells
Outline: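 HTRF read-out of p53 phosphorylation: after EDTA stop, anti-phospho-p53 antibody bound 30 min at 37 °C in HEPES pH 7 buffer, with Eu-anti-rabbit/APC-anti-GST detection. Kinase step used full-length Sf9-expressed GST-PLK1 (3 ug/mL) and E. coli GST-p53 substrate, 35 min at 37 °C.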

T1 sequence (P53350 whole entry): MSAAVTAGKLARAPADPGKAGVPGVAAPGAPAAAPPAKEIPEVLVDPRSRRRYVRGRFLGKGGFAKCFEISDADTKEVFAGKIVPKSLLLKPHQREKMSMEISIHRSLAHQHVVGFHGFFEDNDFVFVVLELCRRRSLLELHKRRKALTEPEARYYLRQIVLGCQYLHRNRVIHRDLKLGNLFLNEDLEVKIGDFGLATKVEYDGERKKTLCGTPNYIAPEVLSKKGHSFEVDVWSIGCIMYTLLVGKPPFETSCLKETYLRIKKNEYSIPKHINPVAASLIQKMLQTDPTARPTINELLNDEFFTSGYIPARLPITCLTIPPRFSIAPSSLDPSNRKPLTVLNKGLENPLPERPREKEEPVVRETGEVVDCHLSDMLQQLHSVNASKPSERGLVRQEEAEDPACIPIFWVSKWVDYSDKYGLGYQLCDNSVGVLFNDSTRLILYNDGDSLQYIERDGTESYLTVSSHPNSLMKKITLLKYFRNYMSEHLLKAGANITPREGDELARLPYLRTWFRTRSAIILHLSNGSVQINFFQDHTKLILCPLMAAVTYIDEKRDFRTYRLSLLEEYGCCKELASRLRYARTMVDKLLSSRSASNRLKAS

IC50 | SMILES
51 to 500 nM | CCN1C(=O)C(F)(F)CN(C2CCCC2)c2nc(Nc3ccc(C(=O)NC4CCN(C)CC4)cc3OC)ncc21 [Example I-159, 4-(9-cyclopentyl-5-ethyl-7,7-difluoro-6-oxo-6,7,8,9-tetrahydro-5H-pyrimido[4,5-b][1,4]diazepin-2-ylamino)-3-methoxy-N-(1-methyl-piperidin-4-yl)-benzamide]
51 to 500 nM | CCN1C(=O)C(F)(F)CN(C2CCCC2)c2nc(Nc3ccc(C(=O)NCCCN(C)C)cc3OC)ncc21 [Example I-160, 4-(9-cyclopentyl-5-ethyl-7,7-difluoro-6-oxo-6,7,8,9-tetra-hydro-5H-pyrimido[4,5-b][1,4]diazepin-2-ylamino)-N-(3-dimethylamino-propyl)-3-methoxy-benzamide]
500 to 5000 nM | CCN1C(=O)C(F)(F)CN(C2CCCC2)c2nc(Nc3ccc(C(=O)NC4CCOCC4)cc3OC)ncc21 [Example I-161, 4-(9-cyclopentyl-5-ethyl-7,7-difluoro-6-oxo-6,7,8,9-tetrahydro-5H-pyrimido[4,5-b][1,4]diazepin-2-ylamino)-3-methoxy-N-(tetrahydro-pyran-4-yl)-benzamide]
500 to 5000 nM | CCCN1C(=O)C(F)(F)CN(C2CCCC2)c2nc(Nc3ccc(C(N)=O)cc3OC)ncc21 [Example I-163, 4-(9-cyclopentyl-7,7-difluoro-6-oxo-5-propyl-6,7,8,9-tetrahydro-5H-pyrimido[4,5-b][1,4]diazepin-2-ylamino)-3-methoxy-benzamide]
500 to 5000 nM | CCCN1C(=O)C(F)(F)CN(C2CCCC2)c2nc(Nc3ccc(C(=O)NC)cc3OC)ncc21 [Example I-164, 4-(9-cyclopentyl-7,7-difluoro-6-oxo-5-propyl-6,7,8,9-tetrahydro-5H-pyrimido[4,5-b][1,4]diazepin-2-ylamino)-3-methoxy-N-methyl-benzamide]
51 to 500 nM | CCCN1C(=O)C(F)(F)CN(C2CCCC2)c2nc(Nc3ccc(C(=O)NC4CCN(C)CC4)cc3OC)ncc21 [Example I-165, 4-(9-cyclopentyl-7,7-difluoro-6-oxo-5-propyl-6,7,8,9-tetrahydro-5H-pyrimido[4,5-b][1,4]diazepin-2-ylamino)-3-methoxy-N-(1-methyl-piperidin-4-yl)-benzamide]
51 to 500 nM | CCCN1C(=O)C(F)(F)CN(C2CCCC2)c2nc(Nc3ccc(C(=O)NCCCN(C)C)cc3OC)ncc21 [Example I-166, 4-(9-cyclopentyl-5-propyl-7,7-difluoro-6-oxo-6,7,8,9-tetra-hydro-5H-pyrimido[4,5-b][1,4]diazepin-2-ylamino)-N-(3-dimethylamino-propyl)-3-methoxy-benzamide]
500 to 5000 nM | CCCN1C(=O)C(F)(F)CN(C2CCCC2)c2nc(Nc3ccc(C(=O)NC4CCOCC4)cc3OC)ncc21 [Example I-167, 4-(9-cyclopentyl-7,7-difluoro-6-oxo-5-propyl-6,7,8,9-tetrahydro-5H-pyrimido[4,5-b][1,4]diazepin-2-ylamino)-3-methoxy-N-(tetrahydro-pyran-4-yl)-benzamide]
1 to 50 nM | COc1cc(C(N)=O)c(F)cc1Nc1ncc2c(n1)N(C1CCCC1)CC(F)(F)C(=O)N2C [Example I-170, 4-(9-cyclopentyl-7,7-difluoro-5-methyl-6-oxo-6,7,8,9-tetrahydro-5H-pyrimido[4,5-b][1,4]diazepin-2-ylamino)-2-fluoro-5-methoxy-benzamide]
1 to 50 nM | CNC(=O)c1cc(OC)c(Nc2ncc3c(n2)N(C2CCCC2)CC(F)(F)C(=O)N3C)cc1F [Example I-171, 4-(9-cyclopentyl-7,7-difluoro-5-methyl-6-oxo-6,7,8,9-tetrahydro-5H-pyrimido[4,5-b][1,4]diazepin-2-ylamino)-2-fluoro-5-methoxy-N-methyl-benzamide]
1 to 50 nM | COc1cc(C(=O)NCCCN(C)C)c(F)cc1Nc1ncc2c(n1)N(C1CCCC1)CC(F)(F)C(=O)N2C [Example I-172, 4-(9-cyclopentyl-7,7-difluoro-5-methyl-6-oxo-6,7,8,9-tetra-hydro-5H-pyrimido[4,5-b][1,4]diazepin-2-ylamino)-N-(3-dimethylamino-propyl)-2-fluoro-5-methoxy-benzamide]
1 to 50 nM | COc1cc(C(=O)NC2CCOCC2)c(F)cc1Nc1ncc2c(n1)N(C1CCCC1)CC(F)(F)C(=O)N2C [Example I-173, 4-(9-cyclopentyl-7,7-difluoro-5-methyl-6-oxo-6,7,8,9-tetrahydro-5H-pyrimido[4,5-b][1,4]diazepin-2-ylamino)-2-fluoro-5-methoxy-N-(tetrahydropyran-4-yl)-benzamide]

Same assay, conditions: GST-PLK1, GST-p53 substrate, ATP

IC50 | SMILES
51 to 500 nM | CCN1C(=O)C(F)(F)CN(C2CCCC2)c2nc(Nc3ccc(C(=O)NC4CCN(C)CC4)cc3)ncc21 [Example I-141, 4-(9-cyclopentyl-5-ethyl-7,7-difluoro-6-oxo-6,7,8,9-tetrahydro-5H-pyrimido[4,5-b][1,4]diazepin-2-ylamino)-N-(1-methyl-piperidin-4-yl)-benzamide]
500 to 5000 nM | CCN1C(=O)C(F)(F)CN(C2CCCC2)c2nc(Nc3ccc(C(=O)NCCCN(C)C)cc3)ncc21 [Example I-142, 4-(9-cyclopentyl-5-ethyl-7,7-difluoro-6-oxo-6,7,8,9-tetrahydro-5H-pyrimido[4,5-b][1,4]diazepin-2-yl-amino)-N-(3-dimethyl-amino-propyl)-benzamide]
500 to 5000 nM | CCN1C(=O)C(F)(F)CN(C2CCCC2)c2nc(Nc3ccc(C(=O)NC4CCOCC4)cc3)ncc21 [Example I-143, 4-(9-cyclopentyl-5-ethyl-7,7-difluoro-6-oxo-6,7,8,9-tetrahydro-5H-pyrimido[4,5-b][1,4]diazepin-2-ylamino)-N-(tetrahydro-pyran-4-yl)-benzamide]
500 to 5000 nM | CCCN1C(=O)C(F)(F)CN(C2CCCC2)c2nc(Nc3ccc(C(N)=O)cc3)ncc21 [Example I-145, 4-(9-cyclopentyl-7,7-difluoro-6-oxo-5-propyl-6,7,8,9-tetrahydro-5H-pyrimido[4,5-b][1,4]diazepin-2-ylamino)-benzamide]
500 to 5000 nM | CCCN1C(=O)C(F)(F)CN(C2CCCC2)c2nc(Nc3ccc(C(=O)NC)cc3)ncc21 [Example I-146, 4-(9-cyclopentyl-7,7-difluoro-6-oxo-5-propyl-6,7,8,9-tetrahydro-5H-pyrimido[4,5-b][1,4]diazepin-2-ylamino)-N-methyl-benzamide]
51 to 500 nM | CCCN1C(=O)C(F)(F)CN(C2CCCC2)c2nc(Nc3ccc(C(=O)NC4CCN(C)CC4)cc3)ncc21 [Example I-147, 4-(9-cyclopentyl-7,7-difluoro-6-oxo-5-propyl-6,7,8,9-tetrahydro-5H-pyrimido[4,5-b][1,4]diazepin-2-ylamino)-N-(1-methyl-piperidin-4-yl)-benzamide]
500 to 5000 nM | CCCN1C(=O)C(F)(F)CN(C2CCCC2)c2nc(Nc3ccc(C(=O)NCCCN(C)C)cc3)ncc21 [Example I-148, 4-(9-cyclopentyl-7,7-difluoro-6-oxo-5-propyl-6,7,8,9-tetrahydro-5H-pyrimido[4,5-b][1,4]diazepin-2-yl-amino)-N-(3-dimethyl-amino-propyl)-benzamide]
500 to 5000 nM | CCCN1C(=O)C(F)(F)CN(C2CCCC2)c2nc(Nc3ccc(C(=O)NC4CCOCC4)cc3)ncc21 [Example I-149, 4-(9-cyclopentyl-7,7-difluoro-6-oxo-5-propyl-6,7,8,9-tetrahydro-5H-pyrimido[4,5-b][1,4]diazepin-2-ylamino)-N-(tetrahydro-pyran-4-yl)-benzamide]
500 to 5000 nM | COc1cc(C(=O)NC2CCN(C)CC2)ccc1Nc1ncc2c(n1)N(C1CCCC1)CC(F)(F)C(=O)N2CC(F)(F)F [Example I-150, 4-[9-cyclopentyl-7,7-difluoro-6-oxo-5-(2,2,2-trifluoro-ethyl)-6,7,8,9-tetrahydro-5H-pyrimido[4,5-b][1,4]diazepin-2-ylamino]-3-methoxy-N-(1-methyl-piperidin-4-yl)-benzamide]
500 to 5000 nM | COc1cc(C(N)=O)ccc1Nc1ncc2c(n1)N(C1CCCC1)CC(F)(F)C(=O)N2 [Example I-152, 4-(9-cyclopentyl-7,7-difluoro-6-oxo-6,7,8,9-tetrahydro-5H-pyrimido[4,5-b][1,4]diazepin-2-ylamino)-3-methoxy-benzamide]
500 to 5000 nM | CNC(=O)c1ccc(Nc2ncc3c(n2)N(C2CCCC2)CC(F)(F)C(=O)N3)c(OC)c1 [Example I-153, 4-(9-cyclopentyl-7,7-difluoro-6-oxo-6,7,8,9-tetrahydro-5H-pyrimido[4,5-b][1,4]diazepin-2-ylamino)-3-methoxy-N-methyl-benzamide]
500 to 5000 nM | COc1cc(C(=O)NCCCN(C)C)ccc1Nc1ncc2c(n1)N(C1CCCC1)CC(F)(F)C(=O)N2 [Example I-154, 4-(9-cyclopentyl-7,7-difluoro-6-oxo-6,7,8,9-tetrahydro-5H-pyrimido[4,5-b][1,4]diazepin-2-ylamino)-N-(3-dimethylamino-propyl)-3-methoxy-benzamide]
> 5000 nM | COc1cc(C(=O)NC2CCOCC2)ccc1Nc1ncc2c(n1)N(C1CCCC1)CC(F)(F)C(=O)N2 [Example I-155, 4-(9-cyclopentyl-7,7-difluoro-6-oxo-6,7,8,9-tetrahydro-5H-pyrimido[4,5-b][1,4]diazepin-2-ylamino)-3-methoxy-N-(tetrahydro-pyran-4-yl)-benzamide]
500 to 5000 nM | CCN1C(=O)C(F)(F)CN(C2CCCC2)c2nc(Nc3ccc(C(N)=O)cc3OC)ncc21 [Example I-157, 4-(9-cyclopentyl-5-ethyl-7,7-difluoro-6-oxo-6,7,8,9-tetrahydro-5H-pyrimido[4,5-b][1,4]diazepin-2-yl-amino)-3-methoxy-benzamide]
500 to 5000 nM | CCN1C(=O)C(F)(F)CN(C2CCCC2)c2nc(Nc3ccc(C(=O)NC)cc3OC)ncc21 [Example I-158, 4-(9-cyclopentyl-5-ethyl-7,7-difluoro-6-oxo-6,7,8,9-tetrahydro-5H-pyrimido[4,5-b][1,4]diazepin-2-ylamino)-3-methoxy-N-methyl-benzamide]
